In patent US20070128217A1 (priority 2003, published 2007):

Columns and labels:
[1] = tested on: recombinant human anti-SARS-CoV antibody 03-018; assay type: binding; parameters: Binding of antibody 03-018 to linear peptides of the N protein of SARS-CoV Urbani / Binding of antibody 03-018 to looped/cyclic peptides of the N protein of SARS-CoV Urbani: unit not given here
[2] = tested on: rabbit serum obtained by immunizing a rabbit with the SARS-CoV strain Frankfurt 1; assay type: binding; parameters: Binding of a rabbit serum to linear peptides / Binding of a rabbit serum to looped peptides / Rabbit serum linear peptides / Rabbit serum looped peptides / Binding of a rabbit serum to linear peptides of protein N of SARS-CoV Urbani (Rabbit serum linear peptides) / Binding of a rabbit serum to looped/cyclic peptides of protein N of SARS-CoV Urbani (Rabbit serum looped peptides): unit not given here
[3] = tested on: antibodies in sera from SARS patients (sera 1a, 1b, 2, 6, 37, 62, London, SARS-yellow, SARS-green); assay type: binding, human; parameters: Binding of serum 6 to linear peptides of protein X1 of SARS-CoV Urbani / Binding of serum 37 to linear peptides of protein X1 of SARS-CoV Urbani / Binding of serum 6 to looped/cyclic peptide (PEPSCAN-ELISA) / Binding of serum 37 to looped/cyclic peptide (PEPSCAN-ELISA) / Binding of serum 37 to looped/cyclic peptides of protein X1 of SARS-CoV Urbani / Binding of serum 6 to linear peptides of protein X2 / Binding of serum 37 to linear peptides of protein X2 / Binding of serum 37 to looped/cyclic peptides of protein X2 of SARS-CoV Urbani / Binding of serum 6 to linear peptides of protein M of SARS-CoV Urbani / Binding of serum 37 to linear peptides of protein M of SARS-CoV Urbani / Binding of serum 6 to looped/cyclic peptides of protein M of SARS-CoV Urbani / Binding of serum 37 to looped/cyclic peptides of protein M of SARS-CoV Urbani / Binding of serum 6 to linear peptides of protein X3 of SARS-CoV Urbani / Binding of serum 37 to linear peptides of protein X3 of SARS-CoV Urbani / Binding of serum 37 to looped/cyclic peptides of protein X3 of SARS-CoV Urbani / Binding of serum 6 to linear peptides of protein X4 of SARS-CoV Urbani / Binding of serum 37 to linear peptides of protein X4 of SARS-CoV Urbani / Binding of serum 37 to looped/cyclic peptides of protein X4 of SARS-CoV Urbani / Binding of serum 6 to linear peptides of protein X5 of SARS-CoV Urbani / Binding of serum 37 to linear peptides of protein X5 of SARS-CoV Urbani / Binding of serum 37 to looped/cyclic peptides of protein X5 of SARS-CoV Urbani / Binding of serum 6 to linear peptides of protein N of SARS-CoV Urbani / Binding of serum 37 to linear peptides of protein N of SARS-CoV Urbani / Binding of serum 6 to linear peptide (PEPSCAN-ELISA) / Binding of serum 1a to looped/cyclic peptides of protein N of SARS-CoV Urbani / Binding of serum 1b to looped/cyclic peptides of protein N of SARS-CoV Urbani / Binding of serum 2 to looped/cyclic peptides of protein N of SARS-CoV Urbani / Binding of serum 6 to looped/cyclic peptides of protein N of SARS-CoV Urbani / Binding of serum 37 to looped/cyclic peptides of protein N of SARS-CoV Urbani / Binding of serum 62 to looped/cyclic peptides of protein N of SARS-CoV Urbani / Binding of serum London to looped/cyclic peptides of protein N of SARS-CoV Urbani / Binding of serum SARS-green to looped/cyclic peptides of protein N of SARS-CoV Urbani: unit not given here

Sequence	Binding of antibody 03-018 to linear peptides of the N protein of SARS-CoV Urbani [1]	Binding of antibody 03-018 to looped/cyclic peptides of the N protein of SARS-CoV Urbani [1]	Recognition of the peptide by the rabbit serum [2]	Binding of serum 1a to linear peptide (PEPSCAN-ELISA) [3]	Binding of serum 1a to looped/cyclic peptides of protein N of SARS-CoV Urbani [3]	Binding of serum 1b to linear peptide (PEPSCAN-ELISA) [3]	Binding of serum 1b to looped/cyclic peptides of protein N of SARS-CoV Urbani [3]	Binding of serum 2 to linear peptide (PEPSCAN-ELISA) [3]	Binding of serum 2 to looped/cyclic peptides of protein N of SARS-CoV Urbani [3]	Binding of serum 6 to linear peptide (PEPSCAN-ELISA) [3]	Binding of serum 6 to looped/cyclic peptides of protein N of SARS-CoV Urbani [3]	Binding of serum 37 to linear peptide (PEPSCAN-ELISA) [3]	Binding of serum 37 to looped/cyclic peptides of protein N of SARS-CoV Urbani [3]	Binding of serum 62 to linear peptide (PEPSCAN-ELISA) [3]	Binding of serum 62 to looped/cyclic peptides of protein N of SARS-CoV Urbani [3]	Binding of serum London to linear peptide (PEPSCAN-ELISA) [3]	Binding of serum London to looped/cyclic peptides of protein N of SARS-CoV Urbani [3]	Binding of serum SARS-green to linear peptide (PEPSCAN-ELISA) [3]	Binding of serum SARS-green to looped/cyclic peptides of protein N of SARS-CoV Urbani [3]	Binding of serum SARS-yellow to linear peptide (PEPSCAN-ELISA) [3]	also measured
DKDPQFKDNVILLNK	0.1	0.4																			Binding of a rabbit serum to linear peptides of protein N of SARS-CoV Urbani (Rabbit serum linear peptides) [2]: 0.1; Binding of a rabbit serum to looped/cyclic peptides of protein N of SARS-CoV Urbani (Rabbit serum looped peptides) [2]: 0.5
GSSRGNSPARMASGG	0.1	0.2	recognized	0.4	0.4	0.2	0.3	0.2	0.7	0.2	0.4	0.5	0.6	0.7	0.6	0.5	0.9	0.8	0.7	0.7	Binding of serum SARS-yellow to looped/cyclic peptides of protein N of SARS-CoV Urbani [3]: 0.5
NSTPGSSRGNSPARM	0.2	0.3	recognized	0.7	0.8	0.5	0.7	0.4	0.6	0.6	0.4	1.2	0.6	1.2	0.6	1.6	0.5	1.8	0.4	1.5	Binding of serum SARS-yellow to looped/cyclic peptides of protein N of SARS-CoV Urbani [3]: 0.4
PGSSRGNSPARMASG	0.1	0.3	recognized	0.3	0.4	0.2	0.2	0.3	0.5	0.2	0.4	0.6	0.6	0.6	0.6	0.5	0.5	0.5	0.5	0.7	Binding of serum SARS-yellow to looped/cyclic peptides of protein N of SARS-CoV Urbani [3]: 0.4
TVLQLPQGTTLPKGF	0.1	0.3																			Binding of a rabbit serum to linear peptides of protein N of SARS-CoV Urbani (Rabbit serum linear peptides) [2]: 0.3; Binding of a rabbit serum to looped/cyclic peptides of protein N of SARS-CoV Urbani (Rabbit serum looped peptides) [2]: 1.2
